Measurements published in patent publication US11845809B2, “Maleate of SCY-635 and uses thereof in medicine” (priority 2018, dated 2023).
Converted amounts (≈) assume the structure as drawn. Read-outs that look alike come from different tables or passages of the source.

Key:
[1] = assay type: physicochemical; conditions: for Final pH of supernatant: FaSSIF, RT
Excerpt: (§1) Crystalline maleate was recommended as a leading salt and further evaluated by kinetic solubility and physicochemical stability.

physchem = assay type: physicochemical; conditions: fassif, thermodynamic from solid, Solubility (S)
[2] = assay type: physicochemical; conditions: for Final pH of supernatant: water, RT
Excerpt: as §1

[3] = One-week physicochemical stability evaluation (HPLC purity); conditions: for Purity (area%) / Purity of initial (%): open, one week
Method: Physicochemical stability of crystalline maleate was evaluated under 25° C./60% RH-open and 40° C./75% RH-open for one week.

P-glycoprotein = P-glycoprotein (Homo sapiens, UniProt P08183); conditions: cited from earlier work
calcineurin = conditions: at concentrations up to 2 μM; cited from earlier work
stimulated Jurkat cells = conditions: cited from earlier work
hepatitis C virus (HCV) [4] = conditions: cited from earlier work
cytochrome P450 1A2 = conditions: cited from earlier work
cytochrome P450 2B6 = conditions: cited from earlier work
hepatitis C virus (HCV) [5] = conditions: cited from earlier work; remark: listed apart in the source
[6] = system: stimulated human peripheral blood mononuclear cells; conditions: cited from earlier work
cyclophilin A = cyclophilin A (Homo sapiens, UniProt P62937); conditions: cited from earlier work
cytochrome P450 3A4 = conditions: cited from earlier work
[7] = in vivo, cited from earlier work

Chain of P-glycoprotein (P08183 whole entry): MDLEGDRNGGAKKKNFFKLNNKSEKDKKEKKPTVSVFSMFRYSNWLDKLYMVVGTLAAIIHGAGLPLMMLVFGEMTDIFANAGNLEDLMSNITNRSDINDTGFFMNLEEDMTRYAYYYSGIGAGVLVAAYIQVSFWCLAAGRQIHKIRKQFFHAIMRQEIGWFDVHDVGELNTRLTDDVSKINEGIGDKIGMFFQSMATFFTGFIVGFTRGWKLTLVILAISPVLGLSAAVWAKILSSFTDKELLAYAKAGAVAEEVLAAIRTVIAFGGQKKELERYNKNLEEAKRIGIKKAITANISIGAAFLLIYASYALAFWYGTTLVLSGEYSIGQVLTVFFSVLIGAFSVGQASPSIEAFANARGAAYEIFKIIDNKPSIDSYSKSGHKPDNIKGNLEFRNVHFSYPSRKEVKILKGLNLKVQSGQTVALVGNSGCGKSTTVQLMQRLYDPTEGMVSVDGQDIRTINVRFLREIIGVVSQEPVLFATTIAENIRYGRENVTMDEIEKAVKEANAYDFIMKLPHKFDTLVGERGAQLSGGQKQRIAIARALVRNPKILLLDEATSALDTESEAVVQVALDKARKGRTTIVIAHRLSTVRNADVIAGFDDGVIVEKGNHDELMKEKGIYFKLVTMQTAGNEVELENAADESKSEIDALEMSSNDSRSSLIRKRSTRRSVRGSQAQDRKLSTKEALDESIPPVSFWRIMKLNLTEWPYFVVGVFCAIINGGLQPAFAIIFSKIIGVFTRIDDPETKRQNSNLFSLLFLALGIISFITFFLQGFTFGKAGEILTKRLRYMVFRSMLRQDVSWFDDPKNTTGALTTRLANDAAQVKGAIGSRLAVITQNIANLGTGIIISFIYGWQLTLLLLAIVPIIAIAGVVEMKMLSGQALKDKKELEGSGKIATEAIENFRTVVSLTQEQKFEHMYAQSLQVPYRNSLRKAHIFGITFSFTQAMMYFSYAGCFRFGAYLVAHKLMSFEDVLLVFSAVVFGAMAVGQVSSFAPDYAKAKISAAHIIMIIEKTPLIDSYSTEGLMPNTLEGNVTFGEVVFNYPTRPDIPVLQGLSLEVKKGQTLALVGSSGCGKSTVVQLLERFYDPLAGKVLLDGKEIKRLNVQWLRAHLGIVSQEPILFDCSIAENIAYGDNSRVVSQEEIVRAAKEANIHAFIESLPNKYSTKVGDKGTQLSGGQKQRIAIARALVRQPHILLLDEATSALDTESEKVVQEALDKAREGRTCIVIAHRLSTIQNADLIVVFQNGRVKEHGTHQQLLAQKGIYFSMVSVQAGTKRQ
Chain of cyclophilin A (P62937 whole entry, species assumed): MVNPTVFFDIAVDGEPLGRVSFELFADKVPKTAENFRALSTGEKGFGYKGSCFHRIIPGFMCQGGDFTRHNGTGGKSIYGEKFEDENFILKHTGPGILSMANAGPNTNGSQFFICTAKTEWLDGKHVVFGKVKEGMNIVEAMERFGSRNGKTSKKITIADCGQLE

Compound: C/C=C/C[C@@H](C)[C@@H](O)[C@H]1C(=O)N[C@@H](CC)C(=O)N(C)[C@H](SCCN(C)C)C(=O)N(C)[C@@H](CC(C)(C)O)C(=O)N[C@@H](C(C)C)C(=O)N(C)[C@@H](CC(C)C)C(=O)N[C@@H](C)C(=O)N[C@H](C)C(=O)N(C)[C@@H](CC(C)C)C(=O)N(C)[C@@H](CC(C)C)C(=O)N(C)[C@@H](C(C)C)C(=O)N1C [Freebase Type A]
- Final pH of supernatant ([1]; 2 hrs): 6.8
- Final pH of supernatant ([1]; 4 hrs): 6.8
- Final pH of supernatant ([1]; 6 hrs): 7.0
- solubility at 2 h (physchem): 3700 µg/mL (≈ 2800 µM)
- solubility at 4 h (physchem): 4700 µg/mL (≈ 3560 µM)
- solubility at 6 h (physchem): 5600 µg/mL (≈ 4240 µM)
- Solubility (S) ([2]; 2 h): 0.1 mg/mL (≈ 75.7 µM)
- Solubility (S) ([2]; 4 h): 0.1 mg/mL (≈ 75.7 µM)
- Solubility (S) ([2]; 6 h): 0.3 mg/mL (≈ 227 µM)
- Final pH of supernatant ([2]; 2 hrs): 6.7
- Final pH of supernatant ([2]; 4 hrs): 6.5
- Final pH of supernatant ([2]; 6 hrs): 6.6

Compound: C/C=C/C[C@@H](C)[C@@H](O)[C@H]1C(=O)N[C@@H](CC)C(=O)N(C)[C@H](SCCN(C)C)C(=O)N(C)[C@@H](CC(C)(C)O)C(=O)N[C@@H](C(C)C)C(=O)N(C)[C@@H](CC(C)C)C(=O)N[C@@H](C)C(=O)N[C@H](C)C(=O)N(C)[C@@H](CC(C)C)C(=O)N(C)[C@@H](CC(C)C)C(=O)N(C)[C@@H](C(C)C)C(=O)N1C [Freebase amorphous]
- Final pH of supernatant ([1]; 2 hrs): 6.9
- Final pH of supernatant ([1]; 4 hrs): 6.9
- Final pH of supernatant ([1]; 6 hrs): 7.0
- Final pH of supernatant ([2]; 2 hrs): 4.9
- Final pH of supernatant ([2]; 4 hrs): 4.7
- Final pH of supernatant ([2]; 6 hrs): 6.2

Compound: Maleate
- Solubility compared with amorphous and crystalline freebase [1]: significant solubility improvement
- Final pH of supernatant ([1]; 6 hrs): 6.0
- Solubility compared with amorphous and crystalline freebase [2]: significant solubility improvement
- Final pH of supernatant ([2]; 6 hrs): 4.9
- Purity (area%) ([3]; 25° C./60% RH): 100.0 area%
- Purity of initial (%) ([3]; 25° C./60% RH): 100.0%
- Purity (area%) ([3]; 40° C./75% RH): 100.0 area%
- Purity of initial (%) ([3]; 40° C./75% RH): 100.0%
- Chemical stability ([3]; both 25° C./60% RH and 40° C./75% RH, at least one week): good chemical stability

Compound: C/C=C/C[C@@H](C)[C@@H](O)[C@H]1C(=O)N[C@@H](CC)C(=O)N(C)[C@H](SCCN(C)C)C(=O)N(C)[C@@H](CC(C)(C)O)C(=O)N[C@@H](C(C)C)C(=O)N(C)[C@@H](CC(C)C)C(=O)N[C@@H](C)C(=O)N[C@H](C)C(=O)N(C)[C@@H](CC(C)C)C(=O)N(C)[C@@H](CC(C)C)C(=O)N(C)[C@@H](C(C)C)C(=O)N1C [SCY-635, (3S,6S,9S,12R,15S,18S,21S,24S,27R,30S,33S)-27-((2-(dimethylamino)ethyl)thio)-30-ethyl-33-((1R,2R,E)-1-hydroxy-2-methylhex-4-en-1-yl)-24-(2-hydroxy-2-methylpropyl)-6,9,18-triisobutyl-3,21-diisopropyl-1,4,7,10,12,15,19,25,28-nonamethyl-1,4,7,10,13,16,19,22,25,28,31-undecaazacyclotritriacontan-2,5,8,11,14,17,20,23,26,29,32-undecaone]
- P-glycoprotein inhibition (P-glycoprotein): weak inhibitor
- P-glycoprotein substrate (P-glycoprotein): poor substrate
- Inhibition of calcineurin phosphatase activity (calcineurin): no detectable inhibition
- Inhibition of interleukin-2 secretion compared with cyclosporine (stimulated Jurkat cells): weaker inhibitor
- Suppression of HCV replication in vitro (hepatitis C virus (HCV) [4]): potent suppression
- Induction of cytochrome P450 1A2 (cytochrome P450 1A2): did not induce
- Induction of cytochrome P450 2B6 (cytochrome P450 2B6): did not induce
- Antiviral activity in combination (hepatitis C virus (HCV) [5]; with alpha interferon 2b): synergistic antiviral activity
- Antiviral activity in combination (hepatitis C virus (HCV) [5]; with ribavirin): additive antiviral activity
- Inhibition of interleukin-2 secretion compared with cyclosporine [6]: weaker inhibitor
- Inhibition of peptidyl prolyl isomerase activity of cyclophilin A (cyclophilin A): at nanomolar concentrations
- Induction of cytochrome P450 3A4 (cytochrome P450 3A4): did not induce
- Blood and liver concentrations of parent drug versus replicon 50% effective dose ([7]; po): exceeded the 50% effective dose
- Oral bioavailability [7]: orally bioavailable
